# According to EPA's ToxValDB 9.5 (doi:10.2903/j.efsa.2006.89r):
# What was measured:
# Apis mellifera = settings: acute; duration: 48 hours; dermal; mortality
# Bibionidae = settings: chronic/long-term; duration: 28 days
# Colinus virginianus = settings: reproduction developmental
# Lepomis macrochirus = settings: acute; duration: 96 hours; mortality
# Daphnia magna = settings: acute; duration: 48 hours; mortality
# Canidae = settings: oral, Dog Other, clinical signs
# Anas platyrhynchos = settings: oral, mortality
structure (smiles),measurement,setting,value
CCOC(=O)CCN(SN(C)C(=O)Oc1cccc2c1OC(C)(C)C2)C(C)C [Benfuracarb],LD50,Apis mellifera,0.19 µg/piece
same,NOEC,Bibionidae,0.001 mg/L
same,LD50,"Rattus norvegicus; acute, oral, mortality",205 mg/kg
same,NOAEL,"Rattus norvegicus; reproduction developmental, reproduction",1.2 mg/kg-day
same,NOAEL,"Rattus norvegicus; short-term, duration: 28 days, clinical chemistry",1.8 mg/kg-day
same,NOEC,Colinus virginianus,8.93 mg/kg-day
same,LC50,Lepomis macrochirus,0.017 µg/mL
same,LC50,Daphnia magna,0.0099 µg/mL
same,NOAEL,"Canidae; chronic, duration: 2 years",2.5 mg/kg-day
same,NOAEL,"Canidae; chronic, duration: 6 months",2.5 mg/kg-day
same,NOAEL,"Canidae; subchronic, duration: 13 weeks",0.625 mg/kg-day
same,LD50,"Anas platyrhynchos; acute, unspecified",19.8 mg/kg
same,LC50,"Anas platyrhynchos; short-term, feed",15 mg/kg-day
